Measurements as given in ChEMBL document CHEMBL3045586, “Synthesis and antimicrobial activity of some new 4-triazolylmethoxy-2H-chromen-2-one derivatives” (2012).
In brackets after ≈: the same amount, converted by molar mass.

What was measured:
[1] = system: Staphylococcus epidermidis; assay: Antibacterial activity against Staphylococcus epidermidis MTCC 435 after 16 to 18 hr by serial dilution method; type: functional
Salmonella typhi [2] = assay: Antibacterial activity against Salmonella enterica subsp. enterica serovar Typhi MTCC 733 at […] to […] ug/ml after 16 to 18 hr by cup-plate method; type: functional
Aspergillus flavus [3] = assay: Antifungal activity against Aspergillus flavus MTCC 277 after 28 to 30 hr by serial dilution method; type: functional
Aspergillus flavus [4] = assay: Antifungal activity against Aspergillus flavus MTCC 277 at […] to […] ug/ml after 28 to 30 hr by cup-plate method; type: functional
Candida albicans [5] = assay: Antifungal activity against Candida albicans MTCC 227 after 28 to 30 hr by serial dilution method; type: functional
Salmonella typhi [6] = assay: Antibacterial activity against Salmonella enterica subsp. enterica serovar Typhi MTCC 733 after 16 to 18 hr by serial dilution method; type: functional
Escherichia coli [7] = type: functional, MTCC 443
Klebsiella pneumoniae [8] = assay: Antibacterial activity against Klebsiella pneumoniae MTCC 432 after 16 to 18 hr by serial dilution method; type: functional
Staphylococcus aureus [9] = assay: Antibacterial activity against Staphylococcus aureus MTCC 096 after 16 to 18 hr by serial dilution method; type: functional
Bacillus subtilis [10] = assay: Antibacterial activity against Bacillus subtilis MTCC 441 after 16 to 18 hr by serial dilution method; type: functional
Escherichia coli [11] = assay: Antibacterial activity against Escherichia coli MTCC 443 after 16 to 18 hr by serial dilution method; type: functional
Bacillus subtilis [12] = type: functional, MTCC 441
Aspergillus niger [13] = assay: Antifungal activity against Aspergillus niger MTCC 282 after 28 to 30 hr by serial dilution method; type: functional
Klebsiella pneumoniae [14] = type: functional, MTCC 432
Aspergillus fumigatus [15] = assay: Antifungal activity against Aspergillus fumigatus MTCC 343 at […] to […] ug/ml after 28 to 30 hr by cup-plate method; type: functional
Pseudomonas aeruginosa [16] = assay: Antibacterial activity against Pseudomonas aeruginosa MTCC 424 after 16 to 18 hr by serial dilution method; type: functional
Candida albicans [17] = type: functional, MTCC 227
Staphylococcus aureus [18] = type: functional, MTCC 096
[19] = system: Staphylococcus epidermidis; type: functional, MTCC 435
Aspergillus niger [20] = assay: Antifungal activity against Aspergillus niger MTCC 282 at […] to […] ug/ml after 28 to 30 hr by cup-plate method; type: functional
Aspergillus fumigatus [21] = assay: Antifungal activity against Aspergillus fumigatus MTCC 343 after 28 to 30 hr by serial dilution method; type: functional
Pseudomonas aeruginosa [22] = type: functional, MTCC 424

Row | SMILES | MIC [1] | inhibition zone (IZ) (Salmonella typhi [2]) | MIC (Aspergillus flavus [3]) | inhibition zone (IZ) (Aspergillus flavus [4]) | MIC (Candida albicans [5]) | MIC (Salmonella typhi [6]) | inhibition zone (IZ) (Escherichia coli [7]) | MIC (Klebsiella pneumoniae [8]) | MIC (Staphylococcus aureus [9]) | MIC (Bacillus subtilis [10]) | inhibition zone (IZ) (Bacillus subtilis [12]) | MIC (Aspergillus niger [13]) | inhibition zone (IZ) (Klebsiella pneumoniae [14]) | inhibition zone (IZ) (Aspergillus fumigatus [15]) | inhibition zone (IZ) (Candida albicans [17]) | inhibition zone (IZ) (Staphylococcus aureus [18]) | inhibition zone (IZ) [19] | inhibition zone (IZ) (Aspergillus niger [20]) | MIC (Aspergillus fumigatus [21]) | inhibition zone (IZ) (Pseudomonas aeruginosa [22]) | further results
1 | O=c1cc(OCc2nnc(-c3ccccc3)[nH]2)c2ccccc2o1 | 12.5 µg/mL (≈ 39.1 µM) | <10 mm | 12.5 µg/mL (≈ 39.1 µM) | 12 mm | 6.25 µg/mL (≈ 19.6 µM) | 25 µg/mL (≈ 78.3 µM) | 12 mm | 12.5 µg/mL (≈ 39.1 µM) | 12.5 µg/mL (≈ 39.1 µM) | 12.5 µg/mL (≈ 39.1 µM) | 11 mm | 12.5 µg/mL (≈ 39.1 µM) | 11 mm | 11 mm | 14 mm | 11 mm | 12 mm | 13 mm | 12.5 µg/mL (≈ 39.1 µM) | 11 mm | MIC (Escherichia coli [11]): 12.5 µg/mL (≈ 39.1 µM); MIC (Pseudomonas aeruginosa [16]): 12.5 µg/mL (≈ 39.1 µM)
2 | O=c1cc(OCc2nnc(-c3ccc(Cl)cc3)[nH]2)c2ccccc2o1 | 50 µg/mL (≈ 141 µM) | 12 mm | 12.5 µg/mL (≈ 35.3 µM) | 12 mm | 6.25 µg/mL (≈ 17.7 µM) | 12.5 µg/mL (≈ 35.3 µM) | 13 mm | 12.5 µg/mL (≈ 35.3 µM) | 12.5 µg/mL (≈ 35.3 µM) | 12.5 µg/mL (≈ 35.3 µM) | 11 mm | 12.5 µg/mL (≈ 35.3 µM) | 12 mm | <10 mm | 14 mm | 12 mm | <10 mm | 12 mm | 25 µg/mL (≈ 70.7 µM) | 12 mm | MIC (Escherichia coli [11]): 6.25 µg/mL (≈ 17.7 µM); MIC (Pseudomonas aeruginosa [16]): 12.5 µg/mL (≈ 35.3 µM)
3 | Cc1ccc(-c2nnc(COc3cc(=O)oc4ccccc34)[nH]2)cc1 | 50 µg/mL (≈ 150 µM) | 12 mm | 25 µg/mL (≈ 75 µM) | <10 mm | 6.26 µg/mL (≈ 18.8 µM) | 12.5 µg/mL (≈ 37.5 µM) | 11 mm | 12.5 µg/mL (≈ 37.5 µM) | 12.5 µg/mL (≈ 37.5 µM) | 12.5 µg/mL (≈ 37.5 µM) | 11 mm | 6.25 µg/mL (≈ 18.7 µM) | 13 mm | 11 mm | 15 mm | 11 mm | <10 mm | 13 mm | 25 µg/mL (≈ 75 µM) | 11 mm | MIC (Escherichia coli [11]): 12.5 µg/mL (≈ 37.5 µM); MIC (Pseudomonas aeruginosa [16]): 12.5 µg/mL (≈ 37.5 µM)
4 | O=c1cc(OCc2nnc(-c3ccc(Br)cc3)[nH]2)c2ccccc2o1 | 50 µg/mL (≈ 126 µM) | 11 mm | 12.5 µg/mL (≈ 31.4 µM) | 12 mm | 6.25 µg/mL (≈ 15.7 µM) | 12.5 µg/mL (≈ 31.4 µM) | 15 mm | 6.25 µg/mL (≈ 15.7 µM) | 12.5 µg/mL (≈ 31.4 µM) | 12.5 µg/mL (≈ 31.4 µM) | 12 mm | 12.5 µg/mL (≈ 31.4 µM) | 13 mm | <10 mm | 12 mm | 11 mm | <10 mm | 11 mm | 25 µg/mL (≈ 62.8 µM) | <10 mm | MIC (Escherichia coli [11]): 6.25 µg/mL (≈ 15.7 µM); MIC (Pseudomonas aeruginosa [16]): 25 µg/mL (≈ 62.8 µM)
5 | O=C(O)c1cn(C2CC2)c2cc(N3CCNCC3)c(F)cc2c1=O [CIPROFLOXACIN] | 6.25 µg/mL (≈ 18.9 µM) | 19 mm |  |  |  | 6.25 µg/mL (≈ 18.9 µM) |  | 6.25 µg/mL (≈ 18.9 µM) |  | 6.25 µg/mL (≈ 18.9 µM) | 18 mm |  | 17 mm |  |  | 17 mm | 15 mm |  |  | 16 mm | 
6 | Clc1ccc(COC(Cn2ccnc2)c2ccc(Cl)cc2Cl)c(Cl)c1 (stereo unspecified) [MICONAZOLE] |  |  | 6.25 µg/mL (≈ 15 µM) | 17 mm | 6.25 µg/mL (≈ 15 µM) |  |  |  |  |  |  | 6.25 µg/mL (≈ 15 µM) |  | 14 mm | 15 mm |  |  | 17 mm | 12.5 µg/mL (≈ 30 µM) |  | 
